Measurements from patent US11130679B2, “Biodegradable hollow nanoparticles and methods and apparatus for manufacturing the same” (University of Utah Research Foundation, priority 2018, dated 2021).
Counter-ions that a name gives are not always drawn.

Test: CCK-8 cytotoxicity in MCF-7 cells
Format: cell-based
Conditions: human, MCF-7 breast cancer epithelial cells, MCF-7, 6 μg mL^−1 of DOX
Procedure: Cytotoxicity of the intact GSH-sensitive HMSiO2 NPs, TEOS HMSiO2 NPs, DOX-loaded GSH-sensitive HMSiO2 NPs, DOX-loaded TEOS HMSiO2 NPs, and free DOX was evaluated in MCF-7 breast cancer epithelial cells. Cells were cultured at 37° C. in 5% CO2 in DMEM with 10% FBS. Then, the cells were stained using Trypan Blue Stain 0.4% and read by Invitrogen Countess™ automated cell counter (Thermo Fisher Scientific Corporation, Grand Island, N.Y., USA). For the cytotoxicity evaluation, cells were seeded onto 96-well plates with the density of 4,000 cells/well and incubated to grow for 48 h. After 48 h, the cells were washed with PBS. Fresh media containing 10% FBS was then added (120 μL) with varying nanoparticle concentrations ranging from 0 to 1,000 μg mL^−1. Wells with media or Triton™ X-100 (without nanoparticles) were used as negative or positive controls, respectively. The cells were then incubated for another 24 and 48 h, the media was aspirated, and the cells were washed twice with PBS. Cell viability was determined using CCK-8 cytotoxicity assay kit according to an established protocol and absorbance was measured at 450 nm with SpectraMax® M2 microplate reader. Assays were performed at least in triplicate.

**Q.** For COc1cccc2c1C(=O)c1c(O)c3c(c(O)c1C2=O)C[C@@](O)(C(=O)CO)C[C@@H]3O[C@H]1C[C@H](N)[C@H](O)[C@H](C)O1 [free DOX, Doxorubicin hydrochloride salt], which cytotoxicity at 24 h, 6 μg mL^−1 (24 h incubation, read-out: Cell viability reduction (cells killed)) is on record?
**A.** ~64%

**Q.** And the cytotoxicity at 48 h, 6 μg mL^−1 (48 h incubation, read-out: Cell viability reduction)?
**A.** ~80%
